pKa data for 70 compounds are collected here from the pKa sets of Baltruschat and Czodrowski (2020).

Assay in data set [1]: not given
The source holds these as a separate data set.

With `O=C(NCC[NH+]1CCC(n2c(=O)[nH]c3cc(F)ccc32)CC1)c1ccc(F)cc1`, the pKa – broadly, the negative logarithm of the acid dissociation constant – worked out at 8.77.

In the case of `CCc1ccc(-c2cnc(C)nc2NC2CCCC2)cc1`, the pKa stood at 6.8.

Compound `CN1c2ccc(C#N)cc2N=C(c2ccc(C(=O)[O-])c(F)c2)c2cc3c(cc21)C(C)(C)CCC3(C)C` displayed a pKa of 3.4.

As for `C=CCNc1ccc2c(c1)c(-c1ccc(C(C)C)cc1)nc(=O)n2C(C)C`, the pKa is 2.9.

The compound `Cc1ccnc(N2CCC3(CCCN(Cc4c[nH]c5ccccc45)C3=O)CC2)n1` returned a pKa of 4.2.

Take `O=NC(=O)CCc1ccc(C[NH+]2CCC(c3c[nH]c4ccccc34)CC2)cc1`: the pKa came to 8.55.

Regarding `Cc1ccc(-c2ccc3c(c2)C=C(C(=O)Nc2ccc(C[NH+](C)C4CCOCC4)cc2)CCC3)cc1`, the pKa is 8.3.

Take `CC#CCn1c(N2CC[NH2+]CC2)c(C#N)c2ncn(CC(=O)c3cccc(OC)c3)c(=O)c21`: the pKa came out at 8.2.

For `CC(C)[NH+](CCc1c(C(C)(C)O)[nH]c2ccccc12)Cc1ccc(CCC(=O)N=O)cc1`, the pKa stood at 9.01.

In turn, `COc1ccc(N2CCc3c(-n4ccc(N5CCNC5=O)n4)cc(C)nc32)c(C)c1` registered a pKa of 6.37.

With `CC(C)(C)c1ccc(S(=O)(=O)Nc2ccc(Cl)cc2C(=O)c2cc[n+]([O-])cc2)cc1`, the pKa came out at 6.87.

Compound `CCC1CCCCN1C(=O)c1cnc(Nc2ccc(C)nc2)c(Cl)c1` (stereo not given) came in with a pKa of 5.3.

Compound `Cc1[nH]c2ccccc2c1CC[NH+]1CCc2cc(CCC(=O)N=O)ccc2C1` showed a pKa of 7.96.

`Cn1c(=O)n(NS(C)(=O)=O)c(=O)c2ccc(Cl)cc21`: the pKa worked out at 6.8.

As to `CN1c2ccc(C#N)cc2N=C(c2ccc(C(=O)[O-])cc2)c2cc3c(cc21)C(C)(C)CCC3(C)C`, the pKa worked out at 3.5.

In the case of `C/C(=C\c1cccc(C)n1)[C@@H]1C[C@@H]2O[C@]2(C)CCC[C@H](C)[C@H](O)[C@@H](C)C(=O)C(C)(C)[C@@H](O)CC(=O)O1`, the pKa turned out to be 5.5.

Compound `CS(=O)(=O)Nn1c(=O)[nH]c2cc(C(F)(F)F)c(N)cc2c1=O` showed a pKa of 8.6.

Turning to `O=C([O-])c1ccccc1Nc1ccc(CCc2ccc(Cl)c(Cl)c2)cc1`, the pKa was 4.39.

`CCN1c2ccc(C#N)cc2N=C(c2ccc(C(=O)[O-])c(F)c2)c2cc3c(cc21)C(C)(C)CCC3(C)C` returned a pKa of 3.

`Cc1nc(-n2ccc([O-])cc2=O)sc1C(=O)NCc1ccccc1`: the pKa amounted to 5.2.

Compound `Cn1c(N)nc2ccccc2c1=O` yielded a pKa of 5.2.

`C/C(=C\c1ccc(C)cn1)[C@@H]1C[C@@H]2O[C@]2(C)CCC[C@H](C)[C@H](O)[C@@H](C)C(=O)C(C)(C)[C@@H](O)CC(=O)O1` had a pKa of 4.5.

With `CS(=O)(=O)c1ccc(C(=O)Nc2ccc(Cl)c(-c3ccccn3)c2)c(Cl)c1`, the pKa was determined as 3.84.

In turn, `Brc1ccc(C2CN3C=CSC3=[NH+]2)cc1` (stereo not given) displayed a pKa of 8.55.

As to `Cc1ncc(-c2ccc(C(F)(F)F)cc2)c(NC2CCCCCC2)n1`, the pKa was determined as 6.

The compound `CC(=C(C#N)C#N)c1ccc2cc(N(C)CCF)ccc2c1` returned a pKa of 2.4.

With `O=C([O-])COc1ccc(Cl)cc1C1CCCCCC1`, the pKa came to 3.48.

`CC(C)Cn1cnc2c(N)nc3ccccc3c21` returned a pKa of 7.24.

Consider `[NH3+]C(CO)c1ccccc1` (stereo not given), for which the pKa came to 8.4.

`CC(=O)Nc1cccc2c1c(Sc1ccc(Cl)cc1)c(C)n2CC(=O)[O-]`: the pKa came to 2.92.

Compound `CCc1ccc(-c2cn3c([nH+]2)SCC3)cc1` yielded a pKa in data set [1] of 4.8.

In the case of `O=C(Nc1cccc(Cl)c1)c1ccc(Cl)cc1O`, the pKa in data set [1] was 6.3.

Consider `c1ccc(Nc2nc(NC3CCCCC3)nc3ccccc23)cc1`, for which the pKa in data set [1] came to 8.

In turn, `COc1cc2c(cc1OC)CN(c1cc(N)c3cc(OC)c(OC)cc3[nH+]1)CC2` returned a pKa in data set [1] of 8.9.

`CCN(CC)c1ncnc2c1cnn2C` displayed a pKa in data set [1] of 4.2.

Consider `CC(NC(=O)c1ccccc1/N=C/c1c(O)ccc2ccccc12)c1ccccc1` (stereo not given), for which the pKa in data set [1] stood at 6.9.

In data set [1], `N#Cc1cnc(NC(=O)Nc2ccc(Cl)c(Cl)c2)s1` came in with a pKa of 7.5.

With `O=C(NC(=O)c1ccccc1)c1ccccc1`, in data set [1], the pKa worked out at 9.9.

As to `Nc1ncnc2ccc(-c3ccnc(F)c3)nc12`, the pKa in data set [1] came to 4.5.

Turning to `CNC(=O)c1nc(-c2ccc(Cl)c(S(=O)(=O)Nc3cccc(F)c3C)c2)cnc1N`, in data set [1], the pKa was found to be 7.6.

Take `COCc1nc2ccccc2n1Cc1ccc(C(C)(C)C)cc1`: the pKa in data set [1] amounted to 4.2.

Take `Cc1nc2ccccn2c1C(=O)NCc1ccc(Cl)cc1`: the pKa in data set [1] is 5.1.

In data set [1], `COc1ccc2c(c1)CN(C(=O)CC[NH+]1CCC(Cc3ccccc3)CC1)CCS2` displayed a pKa of 8.3.

`Cc1cc(C)nc(N2CCC3(CCCN(Cc4nn(C)nc4-c4ccccc4)C3=O)CC2)n1` had a pKa in data set [1] of 4.7.

For the compound `Cc1ccc(C)n1-c1ccc(SCC(=O)[O-])cc1`, the pKa in data set [1] is 3.5.

Regarding `Cc1ccc(C)c(CN2C(=O)CCCC23CCN(c2cnc4ccccc4n2)CC3)c1`, in data set [1], the pKa worked out at 3.4.

Regarding `C=CC(=O)Nc1cccc(Nc2nc(Nc3ccc(OCCOC)cc3)ncc2F)c1`, the pKa in data set [1] is 4.8.

`Cc1cc(N)nc2ccccc12` gave a pKa in data set [1] of 7.9.

In turn, `O=C1N(Cc2cccc3[nH]ccc23)CCCC12CCN(c1cnc3ccccc3n1)CC2` displayed a pKa in data set [1] of 3.75.

In data set [1], `COc1cccc(-c2cnc(N)c(-c3ccc(C(N)=O)cc3)c2)c1` gave a pKa of 5.3.

Take `O=C([O-])c1ccc(-c2nn(C(=O)c3c(Cl)cccc3Cl)c3ccccc23)cc1`: the pKa in data set [1] stood at 3.2.

As for `O=C(Nc1nnc(-c2cccs2)o1)c1cccc(C(F)(F)F)c1`, in data set [1], the pKa turned out to be 5.7.

Turning to `Cn1cc(C(=O)[O-])c(=O)c2ccccc21`, in data set [1], the pKa stood at 6.5.

For the compound `CCNC(=O)OC1CCN(c2nncc3cc(OC)c(OC)cc23)CC1`, in data set [1], the pKa was 5.4.

In data set [1], `O=c1ccc2nc3ccc(O)cc3oc-2c1` displayed a pKa of 5.8.

On to `COc1ccccc1S(=O)(=O)Nc1ccc2c(c1)CN(C)C(=O)N2`, for which the pKa in data set [1] stood at 8.65.

In turn, `O=c1[nH]c2ccc(-c3ccc(F)cc3)cc2cc1[O-]` returned a pKa in data set [1] of 8.2.

`O=C(Nc1ccccc1C(=O)[O-])c1ccc(-c2ccccc2)cc1` registered a pKa in data set [1] of 3.2.

As for `CS(=O)(=O)c1ccc(-c2cnc(N)c(-c3ccc(C(F)(F)F)nc3)c2)cc1`, in data set [1], the pKa was 4.8.

With `Fc1ccc2c(/C=C/c3cccnc3)c[nH]c2c1`, the pKa in data set [1] came out at 5.3.

For the compound `O=C1N(Cc2ccccc2)CCCC12CCN(c1cnc3ccccc3n1)CC2`, in data set [1], the pKa is 3.6.

Compound `C[C@H](C#Cc1ccc(Cc2ccc(F)cc2)s1)N(O)C(N)=O` yielded a pKa in data set [1] of 10.4.

For `CCOC(=O)N1CCC(C)(C[NH+]2CCC3(CC2)CN(S(C)(=O)=O)c2ncccc23)CC1`, in data set [1], the pKa is 8.5.

`N#Cc1cc(C[NH+]2CCC(Nc3ncnc4sc(Cl)cc34)CC2)ccc1F`: the pKa in data set [1] amounted to 7.

`O=C([O-])c1ccccc1Nc1cc(C(F)(F)F)cc(C(F)(F)F)c1` had a pKa in data set [1] of 3.9.

In data set [1], `NC(=O)c1ccc(-c2cc(-c3ccccc3)cnc2N)cc1` came in with a pKa of 5.4.

In turn, `COC(=O)c1ccc2[nH]cc(CN3CCCC4(CCN(c5nc(C)cc(C)n5)CC4)C3=O)c2c1` yielded a pKa in data set [1] of 4.8.

`CC(=O)Nc1cccc(Nc2nc(Nc3ccccc3)n3ncc(C#N)c3n2)c1`: the pKa in data set [1] came to 9.7.

In data set [1], `COc1ccc(Br)c(C=O)c1O` came in with a pKa of 7.5.

In the case of `Nc1ccc(-c2cc3ccccc3oc2=O)cc1`, in data set [1], the pKa is 3.9.
